Assay results taken from article PMC3665789 (PLoS ONE, 2013).
Where two headings read alike, the source gives them in different places.

Columns and labels:
[1] = tested on: HSV-2 TK^- RV-129 (clinical isolate); test: microbe, parasite or virus in culture; format: cell-based; settings: Human alphaherpesvirus 2, HEL
HSV-2 TK^- = test: Anti-HSV CPE assay in HEL, summary; format: cell-based; settings: Human alphaherpesvirus 2, HEL, read-out: Median EC50
[2] = tested on: HSV-1 wild-type KOS (reference strain); test: microbe, parasite or virus in culture; settings: Human alphaherpesvirus 1, HEL
[3] = tested on: HSV-1 wild-type RV-174 (clinical isolate); test: microbe, parasite or virus in culture; settings: Human alphaherpesvirus 1, HEL
[4] = tested on: HSV-1 wild-type RV-175 (clinical isolate); test: microbe, parasite or virus in culture; settings: Human alphaherpesvirus 1, HEL
[5] = tested on: HSV-1 wild-type C559142 (clinical isolate); test: microbe, parasite or virus in culture; settings: Human alphaherpesvirus 1, HEL
[6] = tested on: HSV-1 TK^- RV-294 (clinical isolate); test: microbe, parasite or virus in culture; settings: Human alphaherpesvirus 1, HEL
[7] = tested on: HSV-1 TK^- RV-179 (clinical isolate); test: microbe, parasite or virus in culture; settings: Human alphaherpesvirus 1, HEL
[8] = tested on: HSV-1 TK^- RV-117 (clinical isolate); test: microbe, parasite or virus in culture; settings: Human alphaherpesvirus 1, HEL
[9] = tested on: HSV-2 wild-type G (reference strain); test: microbe, parasite or virus in culture; settings: Human alphaherpesvirus 2, HEL
[10] = tested on: HSV-2 wild-type RV-124 (clinical isolate); test: microbe, parasite or virus in culture; settings: Human alphaherpesvirus 2, HEL
[11] = tested on: HSV-2 wild-type RV-24 (clinical isolate); test: microbe, parasite or virus in culture; settings: Human alphaherpesvirus 2, HEL
[12] = tested on: HSV-2 TK^- BA19026589 (clinical isolate); test: microbe, parasite or virus in culture; settings: Human alphaherpesvirus 2, HEL
HSV-1 wild-type = test: microbe, parasite or virus in culture; settings: Human alphaherpesvirus 1, HEL, read-out: Median EC50
HSV-1 TK^- = test: microbe, parasite or virus in culture; settings: Human alphaherpesvirus 1, HEL, read-out: Median EC50
HSV-2 wild-type = test: microbe, parasite or virus in culture; settings: Human alphaherpesvirus 2, HEL, read-out: Median EC50
HIV-1 IIIB = test: Time-of-drug-addition study, HIV; format: cell-based; settings: MT-4 cells; for time of addition after infection at which antiviral activity is completely lost: p24 Ag ELISA after 31 h, 421 µM dextran sulfate 8000, 6 µM AMD3100
Description: The time-of-drug-addition (TOA) experiments were performed as described. In brief, 1×10^6 MT-4 cells/ml were infected with HIV-1 X4 IIIB at a multiplicity of infection (MOI) of 0.5. The compounds were added at different time points in a range from 0 to 26 h post-infection. After 31 h, HIV-1 replication was detected by p24 HIV-1 Ag ELISA as described above. The reference compounds were added at 100 times their EC50-values, as obtained in the MT-4 cell antiviral assay.

[13] = tested on: HIV-1 NL4.3 binding to CD4+ SupT1 cells; format: cell-based; settings: LabyA1 9.6 µM, sCD4 10 µg/ml, AMD3100 12 µM; no compound MFI 9.8, background 3.9
HIV-1 NL4.3 = test: Pre-incubation of MT-4 cells with compound, wash, then HIV-1 NL4.3 infection; format: cell-based; settings: MT-4 cells pre-incubated 2 h at 37°C, washed, infected with HIV-1 NL4.3; 5 days; control 100% CPE
herpes virus = test: Anti-herpes virus activity of griffithsin in vitro; format: cell-based
HIV = tested on: HIV; design: method as in PMID 15613479, PMID 17669213; settings: cited from earlier work
HSV-2 strain G = test: Time-of-drug-addition study, HSV-2; format: cell-based; settings: HEL cells; LabyA1 19 µM, ACV 35 µM; after 3 days
Description: TOA experiments for HSV-2 were performed identically as the viral replication assays, but each compound separately (LabyA1 or ACV) was added together with the virus (0 h) or after 2 h post-infection. The reference compound was added at least 100 times its EC50-value, as obtained in the HEL cell line (Table 3).

PBMCs = test: Activation markers CD25 and CD69 on PBMCs (flow cytometry); format: cell-based; settings: 3 days, LabyA1 9.6 µM, PHA 0.016 µM
Description: The effects of 9.6 µM LabyA1 and 0.016 µM PHA on the expression levels of the cellular activation markers CD25 and CD69 on PBMCs was measured after 3 days of incubation at 37°C. After washing with PBS/FCS2%, cells were incubated with anti-CD4 conjugated with PerCP (BD Biosciences) and co-stained with the PE-conjugated mAbs anti-CD25 or anti-CD69 (both BD Biosciences) for 30 min at 4°C. For aspecific background staining, cells were incubated with SimulTest™ Control (IgGγ1-FITC/IgGγ2a-PE). After washing, and fixation with 1% formaldehyde solution, samples were analyzed using the FACSCalibur and CellQuest software (BD Biosciences).

HIV-1 R5 BaL in PBMCs = test: Susceptibility of pre-treated PBMCs for HIV-1 infection; settings: washed, HIV-1 BaL, day 7
Description: The next day, cells were collected, extensively washed in culture medium, resuspended (5×10^5 cells/450 µl) and seeded in a 48-well plate. Immediately afterwards, 50 µl of HIV-1 R5 strain BaL (500 pg/well) was added and cells were cultures for 7 days. Supernatant was collected 7 days post virus infection and viral replication was determined by p24 HIV-1 Ag ELISA.

Which results are given for Nc1ccn(C[C@@H](CO)OCP(=O)(O)O)c(=O)n1 [Cidofovir, cidofovir]?
EC50 [1]: 550 ± 200 nM; EC50 (HSV-2 TK^-): 750 nM; EC50 [2]: 480 ± 110 nM; EC50 [3]: 1300 ± 100 nM; EC50 [4]: 1100 ± 100 nM; EC50 [5]: 530 ± 90 nM; EC50 [6]: 300 ± 20 nM; EC50 [7]: 390 ± 120 nM; EC50 [8]: 500 ± 120 nM; EC50 [9]: 600 ± 100 nM; EC50 [10]: 1300 ± 300 nM; EC50 [11]: 1100 ± 300 nM; EC50 [12]: 950 ± 240 nM; EC50 (HSV-1 wild-type): 820 nM; EC50 (HSV-1 TK^-): 390 nM; EC50 (HSV-2 wild-type): 1100 nM

With Cc1ccnc2c1NC(=O)c1cccnc1N2C1CC1 [nevirapine] as the compound, how does the “time of addition post-infection up to which full activity is kept” value (HIV-1 IIIB; 7.5 µM nevirapine) read?
Its value is 4 h.

For C[C@H](Cn1cnc2c(N)ncnc21)OCP(=O)(O)O [tenofovir], which EC50 ([9]; read-out: EC50 against HSV-2) is on record?
The EC50 was > 200000 nM.

For c1cc(CN2CCCNCCNCCCNCC2)ccc1CN1CCCNCCNCCCNCC1 [AMD3100], which “time of addition after infection at which antiviral activity is completely lost” value (HIV-1 IIIB) is on record?
Its value is 2 h.

What about the “virus binding, mean fluorescence intensity (MFI) of anti-gp120 (9205) mAb” value [13] of the same compound?
Its value is 9.5.

What about the “% CPE after pre-incubation of cells and removal of compound” value (HIV-1 NL4.3) of the same compound?
Its value is 13.5±5.5 % CPE.

Which results are given for Griffithsin?
anti-herpes virus activity in vitro (herpes virus): lacks anti-herpes virus activity in vitro; anti-HIV activity (HIV): pM range

For enfuvirtide [T20], which “% CPE after pre-incubation of cells and removal of compound” value (HIV-1 NL4.3) is on record?
Its value is 72.6±13.4 % CPE.

Which results are given for Nc1nc2c(ncn2COCCO)c(=O)[nH]1 [Acyclovir, acyclovir]?
EC50 (HSV-2 TK^-): 52000 nM; HSV-2 induced CPE, compound given simultaneously with virus (0 h) (HSV-2 strain G): no CPE or viral replication were observed; antiviral activity, compound added after 2 h adsorption period (HSV-2 strain G): still active; EC50 [2]: 180 ± 90 nM; EC50 [3]: 310 ± 20 nM; EC50 [4]: 180 ± 30 nM; EC50 [5]: 90 ± 20 nM; EC50 [9]: 270 ± 10 nM; EC50 [10]: 400 ± 60 nM; EC50 [11]: 130 ± 90 nM; EC50 (HSV-1 wild-type): 180 nM; EC50 (HSV-1 TK^-): > 79000 nM; EC50 (HSV-2 wild-type): 270 nM

For dextran sulfate 8000, which “time of addition after infection at which antiviral activity is completely lost” value (HIV-1 IIIB) is on record?
Its value is 1 h.

Which “percentage of CD4+CD69+ cells” value (PBMCs; untreated 1.4±0.8%) does the source give for “phytohemagglutinin [PHA, reference compound]” here?
Its value is 30.9±5.5%.

And the “percentage of CD4+CD25+ cells” value (PBMCs; untreated 10.7±3.2%)?
Its value is 37.2±6.6%.

What about the “p24 HIV-1 Ag production after pre-treatment” value (HIV-1 R5 BaL in PBMCs; PBMCs pre-treated 24 h with 0.016 µM) of the same compound?
The value was 125.08 ± 37.81 ng/mL.

What about the “p24 HIV-1 Ag production after pre-treatment” value (HIV-1 R5 BaL in PBMCs; PBMCs pre-treated 24 h with 0.078 µM) of the same compound?
Its value is 169.54 ± 35.22 ng/mL.
